Reference: patent publication US4918074A, “Polyazaheterocycle compounds” (Yoshitomi Pharmaceutical Industries, Ltd., priority 1984, dated 1990)

Assays:
Rabbit aorta = test: Ca2+-agonistic and antagonistic activity in rabbit aorta; conditions: compound 10^-6 M
Description: Rabbit aorta were isolated and cut into ring segments of about 2 mm. These preparations were suspended in 40 ml chambers filled with Krebs-Henseleit solution bubbled with a gas mixture of 95% O2 +5% CO2 (pH 7.4) and kept at 37° C. The contractile response to [K^+ ]o (9-48 mM) was measured in the absence or presence of test compounds (1).
That is, at lower [K^+ ]o these compounds augmented contractile force, however, at higher [K^+ ]o they produced only relaxation of aorta. [K^+ ]o, at which conversion of the effects of compounds (10^-6 M) occurred, was as follows.

ddY strain mice = test: Acute toxicity in mice; type: in vivo; conditions: five days after administration
Source text: Compound (1), (10) and (23) were orally or intraperitoneally administered to ddY strain mice.

Papillary muscle = test: Ca2+-agonistic and antagonistic action in rabbit myocardium (papillary muscle); conditions: compound 10^-4 M
Description: Papillary muscle was isolated from rabbit heart and suspended in 40 ml chamber filled with Krebs-Henseleit solution ([Ca^2+ ]o was elevated to 5 mM) bubbled with a gas mixture of 95% O2 +5% CO2 and kept at 37° C. The preparation was electrically driven at a rate of 0.5 Hz and developed tension was observed. [K^+ ]o was varied from 5.9 mM to 27 mM in the absence and presence of test compounds.
[K^+ ]o, at which conversion of the effects of compounds (10^-4 M) occurred, was as follows.

[1] = system: coronary arterial blood flow; test: Coronary vasodilating effects in the anesthetized dog; type: in vivo; conditions: Canis lupus familiaris, iv, read-out: Increase in coronary blood flow; for change in vivo at 0.3 mg/kg: 300 μg/kg
Description: (§1) Adult mongrel dogs were anesthetized with sodium pentobarbital (30 mg/kg i.v.). Effects of test compounds on arterial blood pressure, coronary arterial blood flow, vertebral blood flow, renal blood flow, left ventricular dp/dt max (dp/dt max) and urine volume were observed. The compounds were administered intravenously (i.v.) or intraduodenally (i.d.).

[2] = system: left ventricular dp/dt max; test: Cardiotonic effects in the anesthetized dog; type: in vivo; conditions: Canis lupus familiaris, iv, read-out: Increase in dp/dt max; for change in vivo at 0.3 mg/kg: 300 μg/kg
Description: as §1

arterial blood pressure = test: Hypotensive effects in the anesthetized dog; type: in vivo; conditions: Canis lupus familiaris, iv, read-out: Hypotensive effect; for inhibition in vivo at 0.3 mg/kg: 300 μg/kg
Description: as §1

[3] = system: left ventricular dp/dt max; test: Left ventricular dp/dt max after injection into left coronary artery of anesthetized dogs; type: in vivo; conditions: intracoronary injection, anesthetized dog; dose to increase dp/dt max by 30% of effect of isoproterenol (0.1 μg)
Description: (§2) Dogs of either sex were anesthetized with sodium pentobarbital (30 mg/kg i.v.). Heparin (500 U/kg i.v.) was administered before making preparation. Under artificial respiration (18 strokes/min, 20 ml/kg tidal volume), left ventricular dp/dt max, and left coronary blood flow were measured (1). Test compounds were injected into the left coronary artery in a volume of 10 or 30 μl. The effects of compounds on coronary blood flow were observed and presented generally as ED50, a dose required to increase coronary blood flow by a half of the effects of nifedipine (3 μg). Similarly, the effects on dp/dt max were observed and shown as ED30, a dose required to increase dp/dt max by 30% of the efffects of isoproterenol (0.1 μg).

left coronary blood flow = test: Coronary blood flow after injection into left coronary artery of anesthetized dogs; type: in vivo; conditions: intracoronary injection, anesthetized dog; dose to increase CBF by half of the effect of nifedipine (3 μg)
Description: as §2

[4] = Oral bioavailability in words; type: in vivo
[5] = system: blood pressure, coronary, renal and heart function; test: Cardiovascular and renal activity in words; type: in vivo

SMILES | [K+]o at which conversion of Ca2+-agonistic to Ca2+-antagonistic action occurred (Rabbit aorta) [mM] | [K+]o at which conversion of Ca2+-agonistic to Ca2+-antagonistic action occurred (Papillary muscle) [mM] | change in vivo at 0.3 mg/kg [1] [%] | change in vivo at 0.3 mg/kg [2] [%] | Increase in dp/dt max ED30 [3] [µg] | Increase in CBF ED50 (left coronary blood flow) [µg] | further results
CCOC(=O)C1=C(C)Nc2ccnn2C1c1ccccc1C(F)(F)F (centres unmarked) [(1), 6-Ethoxycarbonyl-5-methyl-7-(2-trifluoromethylphenyl)-4,7-dihydropyrazolo[1,5-a]pyrimidine] | 23 | 16 | – | – | – | – | Survival (ddY strain mice; intraperitoneal, 250 mg/kg): All mice survived; Survival (ddY strain mice; oral, 1,000 mg/kg): All mice survived
CCCCOC(=O)C1=C(C)Nc2ccnn2C1c1ccccc1C(F)(F)F (centres unmarked) [(3), 6-Butoxycarbonyl-5-methyl-7-(2-trifluoromethylphenyl)-4,7-dihydropyrazolo[1,5-a]pyrimidine] | 24 | – | – | – | – | – | change in vivo at 0.1 mg/kg ([1]; 100 μg/kg): 36%; change in vivo at 0.1 mg/kg ([2]; 100 μg/kg): 20%
CC1=C(C(=O)OC(C)C)C(c2ccccc2C(F)(F)F)n2nccc2N1 (centres unmarked) [(10), 6-Isopropoxycarbonyl-5-methyl-7-(2-trifluoromethylphenyl)-4,7-dihydropyrazolo[1,5-a]pyrimidine] | 21 | 15 | 132 | 39 | 71 | 5.7 | inhibition in vivo at 0.3 mg/kg (arterial blood pressure): 31%; Survival (ddY strain mice; intraperitoneal, 250 mg/kg): All mice survived; Survival (ddY strain mice; oral, 1,000 mg/kg): All mice survived
CCCOC(=O)C1=C(C)Nc2ccnn2C1c1ccccc1C(F)(F)F (centres unmarked) [(11), 5-Methyl-6-propoxycarbonyl-7-(2-trifluoromethylphenyl)-4,7-dihydropyrazolo[1,5-a]pyrimidine] | 22 | – | – | – | – | – | change in vivo at 0.01 mg/kg ([1]; 10 μg/kg): 36%
CC1=C(C(=O)OC(C)(C)C)C(c2ccccc2C(F)(F)F)n2nccc2N1 (centres unmarked) [(13), 6-tert-Butoxycarbonyl-5-methyl-7-(2-trifluoromethylphenyl)-4,7-dihydropyrazolo[1,5-a]pyrimidine] | 24 | 14 | 34 | 39 | 70 | 22 | –
CC1=C(C(=O)OC2CCCC2)C(c2ccccc2C(F)(F)F)n2nccc2N1 (centres unmarked) [(15), 6-Cyclopentyloxycarbonyl-5-methyl-7-(2-trifluoromethylphenyl)-4,7-dihydropyrazolo[1,5-a]pyrimidine] | 20 | 18 | 125 | 83 | 198 | 1.8 | inhibition in vivo at 0.3 mg/kg (arterial blood pressure): 20%
CC1=C(C(=O)OC(C)C)C(c2ccccc2F)n2nccc2N1 (centres unmarked) [(23), 7-(2-Fluorophenyl)-6-isopropoxycarbonyl-5-methyl-4,7-dihydropyrazolo[1,5-a]pyrimidine] | 19 | 12 | 157 | 44 | 71 | 15 | inhibition in vivo at 0.3 mg/kg (arterial blood pressure): 32%; Survival (ddY strain mice; intraperitoneal, 250 mg/kg): All mice survived; Survival (ddY strain mice; oral, 1,000 mg/kg): All mice survived
CC1=C(C(=O)OC2CCCC2)C(c2ccccc2F)n2nccc2N1 (centres unmarked) [(25), 6-Cyclopentyloxycarbonyl-7-(2-fluorophenyl)-5-methyl-4,7-dihydropyrazolo[1,5-a]pyrimidine] | – | 15 | – | – | 164 | 28 | –
CC1=C(C(=O)OC(C)C)C(c2ccccc2Br)n2nccc2N1 (centres unmarked) [(27), 7-(2-Bromophenyl)-6-isopropoxycarbonyl-5-methyl-4,7-dihydropyrazolo[1,5-a]pyrimidine] | 22 | 12 | – | – | 103 | 7 | inhibition in vivo at 0.03 mg/kg (arterial blood pressure; 30 μg/kg): 20%; change in vivo at 0.03 mg/kg ([1]; 30 μg/kg): 37%
CC1=C(C(=O)OC(C)C)C(c2ccccc2C)n2nccc2N1 (centres unmarked) [(30), 6-Isopropoxycarbonyl-5-methyl-7-(2-methylphenyl)-4,7-dihydropyrazolo[1,5-a]pyrimidine] | 28 | 15 | 47 | 46 | – | – | –
CC(C)OC(=O)C1=C(COCCN)Nc2c(C#N)cnn2C1c1cccc(F)c1F (centres unmarked) [isopropyl 5-(2-aminoethoxymethyl)-3-cyano-7-(2,3-difluorophenyl)-4,7-dihydropyrazolo[1,5-a]pyrimidine-6-carboxylate] | – | – | – | – | – | – | Bioavailability by oral administration [4]: higher bioavailability by the oral administration; Coronary vasodilating activity [5]: high-selective coronary vasodilating activity; Diuretic activity [5]: potent diuretic activity; Heart-depressive activity [5]: weak heart-depressive activity; Hypotensive activity [5]: mild and long-lasting hypotensive activity; Renal blood flow increasing activity [5]: renal blood flow increasing activity
